In experiment [1] the target is T1, Mtb EF-G1 (Elongation factor G1) (Mycobacterium tuberculosis, UniProt P9WNM7). As to the kind of experiment: SPR (Biacore T200), […] steady-state affinity fit. The format is binding. Further details: gene fusA; recombinant Mtb EF-G1 with a C-terminal His tag, immobilized on CM5 chip. On the technique in general: In SPR one partner is held on a chip, and binding of the other changes the refractive index at the surface.

Experiment [2] deals with T1, Mtb EF-G1 (Elongation factor G1). As to the kind of experiment: ITC at […] °C; crystal structure of the complex ([…] Å, SeMet SAD). The format is binding. Further details: gene fusA; recombinant Mtb EF-G1 with a C-terminal His tag.

By Kd is commonly meant a measure of binding affinity in units of concentration.

T1 sequence (P9WNM7 whole entry): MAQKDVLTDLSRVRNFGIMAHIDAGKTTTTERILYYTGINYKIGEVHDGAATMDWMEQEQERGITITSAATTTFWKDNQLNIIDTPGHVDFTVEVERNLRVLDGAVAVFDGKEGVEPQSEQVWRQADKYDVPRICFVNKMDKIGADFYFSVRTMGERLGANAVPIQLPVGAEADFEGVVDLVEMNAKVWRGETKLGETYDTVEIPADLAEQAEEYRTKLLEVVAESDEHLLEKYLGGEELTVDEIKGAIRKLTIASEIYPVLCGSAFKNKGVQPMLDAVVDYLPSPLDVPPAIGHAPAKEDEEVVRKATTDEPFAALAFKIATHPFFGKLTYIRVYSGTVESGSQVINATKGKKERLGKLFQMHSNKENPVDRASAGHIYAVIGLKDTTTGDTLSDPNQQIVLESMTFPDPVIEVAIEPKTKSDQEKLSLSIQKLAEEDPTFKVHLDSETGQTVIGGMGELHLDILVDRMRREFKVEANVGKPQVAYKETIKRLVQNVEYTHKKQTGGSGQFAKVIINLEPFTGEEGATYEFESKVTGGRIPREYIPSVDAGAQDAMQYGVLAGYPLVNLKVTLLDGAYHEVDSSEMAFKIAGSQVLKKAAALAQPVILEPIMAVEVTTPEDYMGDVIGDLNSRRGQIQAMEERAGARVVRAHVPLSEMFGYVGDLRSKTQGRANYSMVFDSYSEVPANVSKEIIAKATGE

Consider `CC(=O)O[C@H]1C[C@@]2(C)[C@@H](C[C@@H](O)[C@H]3[C@@]4(C)CC[C@@H](O)[C@@H](C)[C@@H]4CC[C@@]32C)/C1=C(\CCC=C(C)C)C(=O)O` [FA, Fusidic acid], for which the Kd in experiment [1] was 3.54 µM.

Regarding `Nc1nc2c(ncn2[C@@H]2O[C@H](COP(=O)(O)OP(=O)(O)O)[C@@H](O)[C@H]2O)c(=O)[nH]1` [GDP], the Kd in experiment [2] is 11.5 ± 0.3 µM.

The record behind these values is paper PMC8446442, “Crystal Structure of Mycobacterium tuberculosis Elongation Factor G1” (Frontiers in Molecular Biosciences, 2021).
